According to patent US8044098B2, “Use of hydroxybenzoic acids and their esters and analogues for preventing or treating virus infection” (Shenghua Guangzhou Pharmaceutical Science & Technology Co., …, priority 2005, dated 2011):

Key:
cervical erosion = assay: Clinical use of propyl gallate in treating cervical erosion; type: in vivo, human; settings: for total effectiveness rate: recovered or improved
Method: 4 g propyl gallate was mixed with 40 ml 1,2-propylene glycol and heated to let the ingredients to dissolve. Sterile distilled water was added to the mixture to reach a final volume of 100 ml. 28 married female patients of 22-50 years old were selected for the test. […] The patients were also tested for the absence of vaginal yeast infection or trichomoniasis or sexually transmitted diseases. The patients were randomly divided into two groups of 14 patients each. One group was treated with propyl gallate micro emulsion, the other group with interferon-α suppository (made by Wuhan Tian'ao Pharmaceutical Co.). The treatment was started three days after a patient's last menstrual period. The propyl gallate micro emulsion was applied to the mucosa surfaces with cervical erosion every other day for 30 days. Out of the group treated with propyl gallate, 7 patients had the medicine applied to them by medical professionals at a hospital, the other 7 patients applied the medicine by themselves at home. On the other hand, an interferon-α suppository was used by each patient in the control group once a day before sleep for 30 days. “Recovered”: the cervical skin became smooth, cervical erosion had disappeared; […] The effectiveness of treatment was calculated based on the number of patients that were “recovered” or “improved”. Among patients of the propyl gallate group who were treated at the hospital, the “recovered” rate was about 81%, the “improved” rate was about 15%, and the total effectiveness rate was about 96%. Among patients of the propyl gallate group who were treated at home, the “recovered” rate was about 32%, the “improved” rate was about 55%, and the total effectiveness rate was about 87%. Among patients treated with interferon-α suppository, the “recovered” rate was about 22%, the “improved” rate was about 57%, and the total effectiveness rate was about 79%.

HPV 6/11 = assay: Drug screening by quantitative fluorescent PCR analysis of HPV 6/11 in condyloma acuminata homogenate; parameters: species or system human papillomavirus (HPV)
condyloma acuminata = assay: Clinical use in treating condyloma acuminata; type: in vivo, human
Description: Soft hyperplasia with nipple or cauliflower shaped or other shaped warts were found around the skin of the cunnus or anus. The result from 5% acetate acid white test was positive.
Patients selected for the clinical observation must meet the above standards. Plus the diameter of their skin lesions should equal to or be less than 1 cm. […] Patients who had vaginal yeast, trichomonas, bacteria infection or other complications, chronic diseases, serious liver or kidney diseases or women in pregnancy or lactation were not selected. Treatments to women would not be conducted in their menstrual periods.
50 qualified patients were selected and randomly divided into five groups to be tested with p-hydroxybenzoic acid, gallic acid, ethyl p-hydroxybenzoate, propyl gallate and recombinant human interferon α-2β gel, respectively. The samples of p-hydroxybenzoic acid, gallic acid, ethyl p-hydroxybenzoate and propyl gallate were prepared as described in Example 1. The patients were treated with the test sample to the affected areas three times a day, in the morning, at noon and night. The samples were applied to cover the warts and the patients were required to leave the treated areas exposed and not to move for 20 minutes.
Observation time: 8 days. Patients not cured after 8 days would continue to use the test samples for another 12 weeks, and their prognosis was followed during the 12-week period.
Observed items: the location, shape, size and number of warts were carefully observed and recorded before the treatment.
“Recovered”: all skin lesions had disappeared;
“Obvious Effect”: more than 70% of the skin lesions had disappeared;
“Improved”: more than 30% of the skin lesions had disappeared;
“Not Effective”: less than 30% of the skin lesions had disappeared or the original skin lesions didn't change or even enlarged.

[1] = test system: secretion of HBeAg by 2.2.15 cells; assay: Inhibition of secretion of HBeAg by Hepatitis B 2.2.15 cell line; type: cell-based, HBV; settings: 1 μmol/ml
Description: Hepatitis B 2.2.15 cell line was transfected by HBV DNA (purchased from Institute of Biochemistry and Cell Biology of Shanghai Institute for Biological Sciences or the National Center for Drug Screening) and used as the cell model for screening anti-HBV drug compounds (See Chinese Journal Of Integrated Traditional and Western Medicine on Liver Diseases, 2004, 14(3): 158). The cell culture medium DMEM (GIBCO Company), bovine serum (Hangzhou Siji Qing Biochemical Manufacturer), G418 (GIBCO Company), 3-(4,5-dimethylthiazol-2-yl)-2,5-diphenyltetrazoliumbromide (Sigma), HBsAg and HBeAg diagnostic kit (Shanghai Kehua Bio-engineering Co., Ltd).
The test compounds listed in Table 3 below were dissolved in a mixture containing 20 ml 1,2-propylene glycol and 15 ml Tween-80 and diluted with sterile saline water to 2 μmol/ml of the test compound. Then it was mixed with the cell culture medium at equal volume to obtain a solution containing 1 μmol/ml of the tested compound. Cells at the concentration of 1×10^5 cells per milliliter were inoculated to a 24-well plate at 1 ml/well. Supernatant from the cell culture mixture was collected three days later for testing.

[2] = type: physicochemical
Method: 20 ml 1,2-propylene glycol, 15 ml Tween-80 and 5 ml azone were mixed together and sterile distilled water was added to bring the volume to 100 ml. The pH value of the solution was adjusted to pH 6.8 with NaOH or HCl to obtain a micro emulsion. 10 g propyl gallate and 10 g gallic acid were dissolved in the micro emulsion, respectively, and mixed well. 10 ml of each micro emulsion was added to a capped transparent glass tube. Both solutions were colorless. The absorbance of the two solutions at 400˜500 nm was measured with spectrophotometry and their absorbance was under 0.15. […] Measured by spectrophotometry again, the absorbance of the gallic acid solution was 1.2 and that of the propyl gallate solution was 0.4.

HPV 16/18 = assay: Drug screening by quantitative fluorescent PCR analysis of HPV 16/18 in condyloma acuminata homogenate; parameters: species or system human papillomavirus (HPV)
[3] = patients treated at home (7), every other day for 30 days
[4] = 24 hours after adding the test compound

For `CCCOC(=O)c1cc(O)c(O)c(O)c1` [Propyl gallate], the ““improved” rate” value (cervical erosion; [3]) was “about 55%”, the ““recovered” rate” value (cervical erosion; [3]) was “about 32%” and the total effectiveness rate (cervical erosion; patients treated at home (7)) was “about 87%”. The ““recovered” rate” value (cervical erosion; patients treated at the hospital (7), 4% micro emulsion every other day for 30 days) was “about 81%”, the ““improved” rate” value (cervical erosion; patients treated at the hospital (7), every other day for 30 days) was “about 15%” and the total effectiveness rate (cervical erosion; patients treated at the hospital (7)) was “about 96%”. For the same compound, the “effectiveness compared with interferon-α suppository” value (cervical erosion; patients treated at the hospital, P<0.05) was “significantly better”, the “HPV 6/11 Virus (copies/ml)” value (HPV 6/11; 50 μl 10% micro emulsion + 50 μl HPV sample homogenate, 37° C., 24 hours, saline control 1.45 × 10^6) was 0 copies/ml and the “HPV 6/11 detected by FQ-PCR (in words)” value (HPV 6/11; [4]) was “no HPV 6/11 or HPV 16/18 was detected”. The “treatment effect compared to recombinant human interferon α-2β gel” value (condyloma acuminata; condyloma acuminata patients, 10% micro emulsion) was “more apparent treatment effect”, the “Recovered, 1-4 days” value (condyloma acuminata; number of patients (50 patients in five groups), 10% micro emulsion on affected areas three times a day, all skin lesions disappeared) was 7 and the “Recovered, 5-8 days” value (condyloma acuminata; number of patients, 10% micro emulsion three times a day, all skin lesions disappeared) was 1. The “Obvious Effect, 1-4 days” value (condyloma acuminata; number of patients, more than 70% of the skin lesions disappeared) was 2, the “effect on the secretion of HBeAg by the 2.2.15 cells (in words)” value [1] was “had inhibition effect” and the “inhibition of HBeAg secretion compared with gallic acid and 3,4-dihydroxybenzoic acid” value [1] was “more effective”. The “HBeAg Inhibition Rate” value ([1]; 2.2.15 cells, supernatant collected three days later) was 12.04%, the “colour of solution, initial” value ([2]; micro emulsion pH 6.8, freshly prepared) was “colorless” and the “absorbance after 30 days” value ([2]; micro emulsion pH 6.8, kept at room temperature for 30 days, 400˜500 nm) was 0.4. The “colour of solution after 30 days” value ([2]; micro emulsion pH 6.8, room temperature for 30 days) was “remained colorless”, the “HPV 16/18 Virus (copies/ml)” value (HPV 16/18; 50 μl 10% micro emulsion + 50 μl HPV sample homogenate, 37° C., 24 hours, saline control 1.40 × 10^5) was 0 copies/ml and the “HPV 16/18 detected by FQ-PCR (in words)” value (HPV 16/18; [4]) was “no HPV 6/11 or HPV 16/18 was detected”.
